Reference: patent US20180139985A1 (priority 2015, published 2018)
Where two headings read alike, the source gives them in different places. Bridge positions count the residues as written; N and C are the ends. Square brackets hold non-standard residues; d marks the D form. Peptide text beside a SMILES is read from it. * marks the point of attachment. Ileψ(thiazoline)Cys = CC[C@H](C)[C@H](N)C1=N[C@H](C(=O)*)CS1; dOrn = NCCC[C@@H](N)C(=O)O

How the values were obtained:
[1] = test system: Clostridium perfringens CP-013; type: in vivo, broiler chicken; details: for % Weight gain 1 to 14 d / % Weight gain 1 to 28 d / % Weight gain 14 to 28 d: [(final weight − initial weight)/initial weight] × 100; for Mean body weight (g) 1-d: day 1 (starting weight), n = 30
Clostridium perfringens = type: in vivo, broiler chicken; details: for Mean CFU per gram of chicken feces on Day 28 (n = 24): final day of study; for Mean CFU per gram of chicken feces on Day 21 (n = 6): five days after final challenge; for Mean CFU per gram of chicken feces on Day 10 (n = 10): pre-challenge

Row | Compound | % Weight gain 1 to 14 d ([1]; 55 ppm in feed) [%] | % Weight gain 1 to 28 d ([1]; 55 ppm in feed) [%] | % Weight gain 14 to 28 d ([1]; 55 ppm in feed) [%] | Mean body weight (g) 1-d ([1]; 55 ppm in feed) [g] | Mean CFU per gram of chicken feces on Day 28 (n = 24) (Clostridium perfringens; 55 ppm in feed) [CFU per gram] | Mean CFU per gram of chicken feces on Day 21 (n = 6) (Clostridium perfringens; 55 ppm in feed) | Mean CFU per gram of chicken feces on Day 10 (n = 10) (Clostridium perfringens; 55 ppm in feed) | % Weight gain 1 to 14 d ([1]; 2 ppm in feed) [%] | % Weight gain 1 to 28 d ([1]; 2 ppm in feed) [%] | % Weight gain 14 to 28 d ([1]; 2 ppm in feed) [%] | Mean body weight (g) 1-d ([1]; 2 ppm in feed) [g] | Mean CFU per gram of chicken feces on Day 28 (n = 24) (Clostridium perfringens; 2 ppm in feed) [CFU per gram] | Mean CFU per gram of chicken feces on Day 21 (n = 6) (Clostridium perfringens; 2 ppm in feed) [CFU per gram] | Mean CFU per gram of chicken feces on Day 10 (n = 10) (Clostridium perfringens; 2 ppm in feed)
1 | CC[C@H](C)[C@H](N)C1=N[C@H](C(=O)N[C@@H](CC(C)C)C(=O)N[C@H](CCC(=O)O)C(=O)N[C@H](C(=O)N[C@H]2CCCCNC(=O)[C@H](CC(N)=O)NC(=O)[C@@H](CC(=O)O)NC(=O)[C@H](Cc3cnc[nH]3)NC(=O)[C@@H](Cc3ccccc3)NC(=O)[C@H]([C@@H](C)CC)NC(=O)[C@@H](CCCN)NC2=O)[C@@H](C)CC)CS1 [Bacitracin] ({Ileψ(thiazoline)Cys}-L[dE]IK[dOrn]I[dF]H[dD]N; lactam 4-C) | 941.1 | 3566.0 | 252.1 | 44.4 | 0.0 | 2.5 × 10^1 ± 9.6 ^ CFU per gram | 8.6 × 10^2 ± 1.6 × 10^2 CFU per gram | – | – | – | – | – | – | –
2 | Virginiamycin | – | – | – | – | – | – | – | 1024.7 | 3532.8 | 223.0 | 44.5 | 0.0 | 0.0 | 1.1 × 10^3 ± 2.2 × 10^2 CFU per gram
